Laboratory results reported in BindingDB's records for patent US11839613 (Idorsia Pharmaceuticals, 2023).
pIC50: −log10 of the molar value.

Experiments:
[1] = molecular target: Prostaglandin E2 receptor EP2 subtype (Homo sapiens, UniProt P43116); assay: hEP2 cAMP Assay
Procedure: Cells are counted washed and resuspended in assay buffer (AB; HBSS, 20 mM HEPES, 0.2% BSA; 2 mM IBMX). […] Plate is pre-incubated 45 minutes at RT. […] Plate is incubated 30 minutes at RT.

[2] = molecular target: Prostaglandin E2 receptor EP4 subtype (Homo sapiens, UniProt P35408); assay: hEP4 cAMP Assay
Sequence of Prostaglandin E2 receptor EP4 subtype (P35408 whole entry): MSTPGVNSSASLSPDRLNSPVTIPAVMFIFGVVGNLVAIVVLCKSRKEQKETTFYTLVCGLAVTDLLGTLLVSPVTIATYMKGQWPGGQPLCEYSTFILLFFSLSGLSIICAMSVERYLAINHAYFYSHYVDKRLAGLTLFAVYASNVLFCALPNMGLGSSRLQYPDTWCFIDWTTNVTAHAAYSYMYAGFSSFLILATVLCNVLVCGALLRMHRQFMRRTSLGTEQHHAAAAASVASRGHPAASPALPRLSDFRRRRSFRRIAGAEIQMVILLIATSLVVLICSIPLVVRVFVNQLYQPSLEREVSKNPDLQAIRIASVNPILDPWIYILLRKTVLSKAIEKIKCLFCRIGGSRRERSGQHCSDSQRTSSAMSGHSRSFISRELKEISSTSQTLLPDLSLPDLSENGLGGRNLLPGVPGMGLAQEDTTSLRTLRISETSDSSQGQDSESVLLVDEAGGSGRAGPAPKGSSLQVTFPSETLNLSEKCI
Procedure: Cells are counted washed and resuspended in assay buffer (AB; HBSS, 20 mM HEPES, 0.2% BSA; 2 mM IBMX). […] Plate is pre-incubated 45 minutes at RT. Subsequently, 2.5 microliters of PGE2 (final conc. 6 nM) are transferred into the assay plate. Plate is incubated 30 minutes at RT. […] For each compound concentration the percentage of cAMP compared to DMSO control value as average ±STDEV (each concentration is measured in duplicate) is calculated.

Sequence of Prostaglandin E2 receptor EP2 subtype (P43116 whole entry): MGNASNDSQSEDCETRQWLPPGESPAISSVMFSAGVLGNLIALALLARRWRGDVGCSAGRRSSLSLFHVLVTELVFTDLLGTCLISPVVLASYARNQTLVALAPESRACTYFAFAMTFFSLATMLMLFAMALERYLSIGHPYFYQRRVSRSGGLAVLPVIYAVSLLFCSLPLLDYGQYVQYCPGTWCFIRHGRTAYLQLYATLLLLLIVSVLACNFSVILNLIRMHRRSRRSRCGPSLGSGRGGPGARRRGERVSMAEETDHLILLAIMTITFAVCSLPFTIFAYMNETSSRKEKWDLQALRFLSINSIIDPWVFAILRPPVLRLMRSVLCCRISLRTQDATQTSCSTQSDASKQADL

| SMILES | pIC50 [1] | pIC50 [2] |
| --- | --- | --- |
| CCOc1cc(-c2cc(NCCc3c(OC)cc4ccccc4c3F)ncn2)ccc1C(=O)O [US11839613, Example 101] | 6.99 | 7.46 |
| CCOc1cc(-c2cc(NCCc3cc4ccccc4cc3NC)ncn2)ccc1OCC(=O)O [US11839613, Example 274] | 5.93 | 6.34 |
| CCOc1cc(-c2cc(NCCc3cc(F)c4sccc4c3)ncn2)ccc1C(=O)O [US11839613, Example 361] | 6.57 | 7.17 |
| CCOc1cc(-c2cc(NCCc3cc(F)c4sccc4c3)ncn2)sc1C(=O)O [US11839613, Example 362] | – | 9.00 |
| CCOc1cc(-c2cc(NCCc3cc(F)c4sccc4c3)ncn2)ccc1CC(=O)O [US11839613, Example 363] | 6.27 | 7.46 |
| CSc1cc(-c2cc(NCCc3cc(F)c4sccc4c3)ncn2)ccc1C(=O)O [US11839613, Example 364] | 7.43 | 7.74 |
| CCOc1cc(-c2cc(NCCc3ccc4sccc4c3F)ncn2)ccc1C(=O)O [US11839613, Example 365] | 7.54 | 7.26 |
| O=C(O)c1ccc(-c2cc(NCCc3ccc4sccc4c3F)ncn2)cc1OC1CCC1 [US11839613, Example 366] | 7.52 | 7.33 |
| CCOc1cc(-c2cc(NCCc3ccc4sccc4c3F)ncn2)sc1C(=O)O [US11839613, Example 367] | 8.22 | 9.00 |
| CCOc1cc(-c2cc(NCCc3ccc4sccc4c3F)ncn2)ccc1CC(=O)O [US11839613, Example 368] | 6.92 | 7.43 |
| CCOc1cc(-c2cc(NCCc3ccc4sccc4c3)ncn2)cc(F)c1CC(=O)O [US11839613, Example 370] | 6.51 | 7.09 |
| CCOc1cc(-c2cc(NCCc3cc4ccsc4cc3OC)ncn2)cc(F)c1CC(=O)O [US11839613, Example 371] | 7.32 | 7.17 |
| CCOc1cc(-c2cc(NCCc3ccc4sccc4c3C)ncn2)cc(F)c1CC(=O)O [US11839613, Example 372] | 6.95 | – |
| CCOc1cc(-c2cc(NCCc3cc4c(cc3OC)OCCO4)ncn2)cc(F)c1CC(=O)O [US11839613, Example 373] | 6.54 | – |
| CCOc1cc(-c2cc(NCCc3c(OC)cc4ccccc4c3C)ncn2)cc(F)c1CC(=O)O [US11839613, Example 374] | 6.52 | 7.35 |
| CCOc1cc(-c2cc(NCCc3ccc4sccc4c3F)ncn2)cc(F)c1CC(=O)O [US11839613, Example 375] | 6.53 | 7.18 |
| CCOc1cc(-c2cc(NCCc3ccc4ccsc4c3C)ncn2)sc1C(=O)O [US11839613, Example 376] | 6.73 | 7.96 |
| CCCc1cc(-c2cc(NCCc3cc4ccsc4cc3OC)ncn2)ccc1C(=O)O [US11839613, Example 377] | 7.57 | 7.04 |
| CCCc1cc(-c2cc(NCCc3ccc4sccc4c3F)ncn2)ccc1C(=O)O [US11839613, Example 378] | 6.96 | 7.18 |
| CCCc1cc(-c2cc(NCCc3cc4c(cc3OC)OCCO4)ncn2)ccc1C(=O)O [US11839613, Example 379] | 7.06 | 6.61 |
| CCCc1cc(-c2cc(NCCc3c(OC)cc4ccccc4c3C)ncn2)ccc1C(=O)O [US11839613, Example 380] | 6.91 | 7.27 |
| COc1cc2sccc2cc1CCNc1cc(-c2ccc(CC(=O)O)c(OC)c2)ncn1 [US11839613, Example 381] | 6.78 | 6.92 |
| COc1cc(-c2cc(NCCc3ccc4sccc4c3F)ncn2)ccc1CC(=O)O [US11839613, Example 382] | 6.17 | 6.65 |
| COc1cc2c(cc1CCNc1cc(-c3ccc(CC(=O)O)c(OC)c3)ncn1)OCCO2 [US11839613, Example 383] | 6.19 | 6.57 |
| COc1cc(-c2cc(NCCc3c(OC)cc4ccccc4c3C)ncn2)ccc1CC(=O)O [US11839613, Example 384] | 6.24 | 7.23 |
| CCCc1cc(-c2cc(NCCc3cc4c(cc3OC)OCCO4)ncn2)ccc1CC(=O)O [US11839613, Example 387] | 6.69 | – |
| CCCc1cc(-c2cc(NCCc3c(OC)cc4ccccc4c3C)ncn2)ccc1CC(=O)O [US11839613, Example 388] | 6.20 | 7.29 |
| CCCc1cc(-c2cc(NCCc3cc(F)c4sccc4c3)ncn2)ccc1C(=O)O [US11839613, Example 389] | 6.64 | 7.24 |

More lines, now with the values ahead:

| pIC50 [1] | pIC50 [2] | SMILES |
| --- | --- | --- |
| 6.13 | 6.63 | CCCc1cc(-c2cc(NCCc3cc4c(cc3OC)OCCO4)ncn2)ccc1C(C)C(=O)O (racemic) [US11839613, Example 401] |
| – | 6.49 | CCCc1cc(-c2cc(NCCc3ccc4sccc4c3F)ncn2)ccc1C(C)C(=O)O (racemic) [US11839613, Example 482] |
| 6.61 | 8.22 | CCOc1cc(-c2cc(NCCc3cc(C)c4sccc4c3)ncn2)sc1C(=O)O [US11839613, Example 391] |
| 6.81 | 6.95 | CCCOc1cc(-c2cc(NCCc3cc4ccsc4cc3OC)ncn2)ccc1CC(=O)O [US11839613, Example 392] |
| 6.36 | 7.09 | CCCOc1cc(-c2cc(NCCc3ccc4sccc4c3F)ncn2)ccc1CC(=O)O [US11839613, Example 393] |
| 9.00 | 7.70 | COc1cc2c(c(C)c1CCNc1cc(-c3ccc(C(=O)O)c(OC4CCC4)c3)ncn1)OCCO2 [US11839613, Example 396] |
| 7.60 | – | CCCc1cc(-c2cc(NCCc3c(OC)cc4c(c3C)OCCO4)ncn2)ccc1CC(=O)O [US11839613, Example 397] |
| 7.40 | 7.32 | CCOc1cc(-c2cc(NCCc3c(OC)cc4c(c3C)OCCO4)ncn2)ccc1CC(=O)O [US11839613, Example 399] |
| – | 7.43 | COc1cc2c(c(C)c1CCNc1cc(-c3ccc(C(=O)O)c(SC)c3)ncn1)OCCO2 [US11839613, Example 400] |
| 7.32 | 6.88 | CCCc1cc(-c2cc(NCCc3cc4c(cc3OCC)OCCO4)ncn2)ccc1CC(=O)O [US11839613, Example 402] |
| 6.49 | – | COc1cc2c(cc1CCNc1cc(-c3ccc(CC(=O)O)c(CC(C)C)c3)ncn1)OCCO2 [US11839613, Example 411] |
| 7.66 | – | COc1cc2c(c(C)c1CCNc1cc(-c3ccc(CC(=O)O)c(OC(C)C)c3)ncn1)OCCO2 [US11839613, Example 426] |
| – | 6.72 | CCOc1cc2c(cc1CCNc1cc(-c3ccc(CC(=O)O)c(OC(F)(F)F)c3)ncn1)OCCO2 [US11839613, Example 427] |
| – | 7.30 | COc1cc2c(c(C)c1CCNc1cc(-c3ccc(CC(=O)O)c(OC(F)(F)F)c3)ncn1)OCCO2 [US11839613, Example 428] |
| – | 7.02 | COc1cc(-c2cc(NCCc3c(OC)cc4c(c3C)OCCO4)ncn2)ccc1CC(=O)O [US11839613, Example 434] |
| 6.65 | – | COc1cc2c(c(F)c1CCNc1cc(-c3ccc(CC(=O)O)c(OC(F)F)c3)ncn1)OCCO2 [US11839613, Example 442] |
| 7.80 | – | CCOc1cc2c(cc1CCNc1cc(-c3ccc(C(=O)O)c(OC4CC4)c3)ncn1)OCCO2 [US11839613, Example 447] |
| – | 6.94 | COc1cc(-c2cc(NCCc3cc(F)c4sccc4c3)ncn2)ccc1CC(=O)O [US11839613, Example 475] |
